Structures can show the parent of a compound that is named as a salt. Where two headings read alike, the source gives them in different places.
Tests used:
[1] = target: T1, MetJ dimer–DNA complex (F-metC) (Escherichia coli, UniProt P0A8U6); experiment: Fluorescence anisotropy assay: MetJ titrated into F-metC DNA and ligand, MetJ dimer–DNA complex formation; type: binding; settings: for EC50: F-metC 10 nM, average of three titrations, read-out: EC50, concentration of MetJ monomer required to promote half-maximal formation of its complex with the F-metC DNA; for Fold-improvement over monovalent control 11: unquaternised bivalent ligand 1 mM vs 11 at 2 mM
Excerpt: A fluorescence anisotropy-based binding assay was used to compare the relative ability of SAM analogues to promote MetJ dimer–DNA complex formation. Since SAM has low affinity for MetJ in the absence of DNA,[8,13] measurements were made in the presence of the DNA fragment F-metC, a fluorescently-labeled analogue of the shortest naturally occurring operator sequence, metC.[14] Titration of MetJ into a solution containing fixed concentrations of F-metC and ligand allows the change in anisotropy related to ternary complex formation to be measured (Fig. 5).
Figure 5 Cartoon illustrating the fluorescence anisotropy assay. The SAM molecules promote the formation of a SAM–F-metC–protein complex, with two MetJ dimers bound to the 18 base-pair DNA duplex.
The half-maximal concentration of MetJ, EC50, required to promote complex formation was determined for each ligand. […] The monovalent ligands 11 and 12 (2 mM) and the bivalent ligands 9 and 10 (1 mM) all promoted the formation of the MetJ–DNA complex (Table 1). […] The unquaternised bivalent ligands 9a–e (1 mM) promoted complex formation up to about threefold more effectively than the corresponding monovalent analogue 11. Similarly, the quaternised bivalent ligands 10a and 10b promoted, respectively, complex formation 2.4- and 3.6-fold more effectively than the quaternised monovalent analogue 12.
Analysis of novel SAM analogues binding to MetJ in the presence of operator DNA was carried out using fluorescence anisotropy. Fluorescence anisotropy experiments were performed on a Spex Fluorolog Tau spectrofluorometer (HORIBA Jobin Yvon) controlled by Datamax software. The excitation and emission wavelengths were set to 488 nm and 517 nm respectively. Slit widths were set to 5 nm and all experiments were carried out at 19 °C. The detector integration time was 5 seconds and three readings were taken of each sample to obtain an average anisotropy. Free anisotropy values were 0.051-0.060. Increase in fluorescence anisotropy was observed upon titration of MetJ into a solution of F-metC (10 nM) with and without ligand ([…]) in TK buffer pH 7.6 (50 mM Trizma hydrochloride pH 7.6, 100 mM KCl) with a total starting volume of 200 µL. […] The final DMSO concentration was 2% or less. After each addition, the sample was mixed with a pipette and left to equilibrate for five minutes before the fluorescence anisotropy readings were acquired. The intensity of linear and perpendicular light, compared to the excitation light is measured experimentally and the anisotropy was calculated using the following equation:‖
The data was fitted to a sigmoidal growth logistic model using the following equation: […]
Where A1 refers to the initial value, A2 refers to the final value, x0 refers to the centre and p is a value relating to the slope of the transition. Errors refer the standard deviation of three titration repeats. An arbitrary weighting function with the following equation was employed: […]

[2] = target: T1, MetJ dimer–DNA complex (F-metC); set-up: method as in PMID 19194573; settings: monovalent ligand 4, 2 mM; F-metC 10 nM; read-out: EC50, concentration of MetJ monomer required to promote half-maximal formation of its complex with the F-metC DNA; cited from earlier work
[3] = monovalent ligand 2 mM, DMSO 2%

T1 sequence (P0A8U6 2-105, one chain of several): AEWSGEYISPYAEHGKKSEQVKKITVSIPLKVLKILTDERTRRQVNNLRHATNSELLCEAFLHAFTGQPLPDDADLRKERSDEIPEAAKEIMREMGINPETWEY

Compound	EC50 ([1]; unquaternised ligands 2 mM)	EC50 ([1]; bivalent ligand 1 mM, DMSO 2%)	Fold-improvement over monovalent control 11 [1]	further results
CN(CC[C@H](N)C(=O)NCc1ccccc1)C[C@H]1O[C@@H](n2cnc3c(N)ncnc32)[C@H](O)[C@@H]1O [Compound 11, 5′-[{(3′′S)-4′′-Benzylamino-3′′-amino-4′′-oxobutyl}methylamino]-5′-deoxyadenosine]	–	–	–	EC50 [1, 3]: 120 ± 10 nM
CCCNC(=O)CCCN(C)C[C@H]1O[C@@H](n2cnc3c(N)ncnc32)[C@H](O)[C@@H]1O [Compound 4]	–	–	–	EC50 [2]: 1000 ± 100 nM
CN(CCCC(=O)NCCCCn1nnc2c1CCCCCC2OCCNC(=O)CCCN(C)C[C@H]1O[C@@H](n2cnc3c(N)ncnc32)[C@H](O)[C@@H]1O)C[C@H]1O[C@@H](n2cnc3c(N)ncnc32)[C@H](O)[C@@H]1O (stereo partly drawn) [Compound 15b, 4-((Adenosyl)(methyl)amino)-N-(2-(1-(4-(4-((adenosyl) (methyl)amino)butanamido)butyl)-4,5,6,7,8,9-hexahydro-1H-cycloocta[d][1,2,3]triazol-4-yloxy)ethyl)butanamide and 4-(-((adenosyl)(methyl)amino)-N-(2-(1-(4-(4-(-((adenosyl)(methyl)amino)butanamido)butyl)-4,5,6,7,8,9-hexahydro-1H-cycloocta[d][1,2,3]triazol-9-yloxy)ethyl)butanamide]	76 ± 2 nM	–	–	–
CN(CCCC(=O)NCCNC(=O)CCCN(C)C[C@H]1O[C@@H](n2cnc3c(N)ncnc32)[C@H](O)[C@@H]1O)C[C@H]1O[C@@H](n2cnc3c(N)ncnc32)[C@H](O)[C@@H]1O [Compound 18a, N,N′-Di-[5′-deoxy-5′-N-methyl-N′-(4-butyryl)-adenosine]-1,2-ethylenediamine]	700 ± 50 nM	–	–	Fold-improvement over monovalent control 4 ([1]; ligands 2 mM): 1.4-fold
CN(CC[C@H](N)C(=O)NCC#CC#CCNC(=O)[C@@H](N)CCN(C)C[C@H]1O[C@@H](n2cnc3c(N)ncnc32)[C@H](O)[C@@H]1O)C[C@H]1O[C@@H](n2cnc3c(N)ncnc32)[C@H](O)[C@@H]1O [Compound 9e, N,N′-(Hexa-2,4-diyne-1,6-diyl)bis{(2′S)-2′-amino-4′-[5′′-deoxy-5′′-(methylamino)-adenosyl]butanamide}]	–	111 ± 5 nM	1.1-fold	–
C[N+](C)(CCCC(=O)NCCCCn1nnc2c1CCCCCC2OCCNC(=O)CCC[N+](C)(C)C[C@H]1O[C@@H](n2cnc3c(N)ncnc32)[C@H](O)[C@@H]1O)C[C@H]1O[C@@H](n2cnc3c(N)ncnc32)[C@H](O)[C@@H]1O.[I-].[I-] (stereo partly drawn) [Compound 16b, 4-((Adenosyl)(dimethyl)amino)-N-(2-(1-(4-(4-((adenosyl) (dimethyl)amino)butanamido)butyl)-4,5,6,7,8,9-hexahydro-1H-cycloocta[d][1,2,3]triazol-4-yloxy)ethyl)butanamide diiodide and 4-(-((adenosyl)(dimethyl)amino)-N-(2-(1-(4-(4-(-((adenosyl)(dimethyl)amino)butanamido)butyl)-4,5,6,7,8,9-hexahydro-1H-cycloocta[d][1,2,3]triazol-9-yloxy)ethyl)butanamidediiodide]	–	–	–	Fold-improvement over monovalent control 5 ([1]; quaternised ligands 2 mM): 3.6-fold; EC50 ([1]; quaternised ligands 2 mM): 42 ± 3 nM
CN(CC[C@H](N)C(=O)NCc1ccccc1-c1ccccc1CNC(=O)[C@@H](N)CCN(C)C[C@H]1O[C@@H](n2cnc3c(N)ncnc32)[C@H](O)[C@@H]1O)C[C@H]1O[C@@H](n2cnc3c(N)ncnc32)[C@H](O)[C@@H]1O [Compound 9c, N,N′-(Biphenyl-2,2′-diylybismethylene)bis{(2′′S)-2′′-amino-4′′-[5′′′-deoxy-5′′′-(methylamino)-adenosyl]butanamide}]	–	39 ± 1 nM	3.1-fold	–
CN(CCCC(=O)NCCCCCCNC(=O)CCCN(C)C[C@H]1O[C@@H](n2cnc3c(N)ncnc32)[C@H](O)[C@@H]1O)C[C@H]1O[C@@H](n2cnc3c(N)ncnc32)[C@H](O)[C@@H]1O [Compound 18d, N,N′-Di-[5′-deoxy-5′-N-methyl-N′-(4-butyryl)-adenosine]-1,6-diaminohexane]	47 ± 1 nM	–	–	–
C[N+](C)(CC[C@H](N)C(=O)NCc1ccccc1)C[C@H]1O[C@@H](n2cnc3c(N)ncnc32)[C@H](O)[C@@H]1O [Compound 12, 5′-[{(3′′S)-4′′-Benzylamino-3′′-amino-4′′-oxobutyl}dimethylamino]-5′-deoxyadenosine iodide ditrifluoroacetic acid salt]	–	–	–	EC50 [1, 3]: 36 ± 6 nM
CN(CC[C@H](N)C(=O)NCc1cccc(CNC(=O)[C@@H](N)CCN(C)C[C@H]2O[C@@H](n3cnc4c(N)ncnc43)[C@H](O)[C@@H]2O)c1)C[C@H]1O[C@@H](n2cnc3c(N)ncnc32)[C@H](O)[C@@H]1O [Compound 9b, N,N′-(1,3-Phenylenebismethylene)bis{(2′S)-2′-amino-4′-[5′′-deoxy-5′′-(methylamino)-adenosyl]butanamide}]	–	37 ± 2 nM	3.2-fold	–

— PMC3267017, “Design, synthesis and in vitro evaluation of novel bivalent S-adenosylmethionine analogues” (Bioorganic & Medicinal Chemistry Letters, 2012)
